According to ChEMBL document CHEMBL6121021, “Design and Synthesis of Topoisomerases-Histone Deacetylase Dual Targeted Quinoline-Bridged Hydroxamates as Anticancer Agents” (J Med Chem, 2025):
Active and inactive are the calls of the source. The calls are words filed in the database; no cut-off is given here.

Columns and labels:
A549 [1] = test: In vivo anti-migratory activity in human A549 cells xenografted in athymic nude Crl:NU-Foxn1nu mouse assessed as decrease in vimentin mRNA level at 30 mg/kg, po administered twice a week for 1 month by qPCR analysis; assay type: functional, organism-based; settings: time 1.0 months
[2] = Drug metabolism in human hepatocytes assessed as formation of O-demethylated M6 metabolite conjugated with sulphate at 10 uM by LC-MS/MS analysis; assay type: ADME, cell-based, Hepatocyte
A549 [3] = test: Induction of mitophagy in human A549 cells at 500 nM by MitoTracker Green dye based analysis; assay type: functional, cell-based
[4] = Toxicity in athymic nude Crl:NU-Foxn1nu mouse xenografted with human A549 cells assessed as animal survival at 30 mg/kg, po administered twice a week for 1 month; assay type: organism-based; settings: in vivo, 730 h, time 1 months
A549 [5] = test: In vivo cytotoxicity against human A549 cells xenografted in athymic nude Crl:NU-Foxn1nu mouse at 15 to 30 mg/kg, po administered twice a week for 1 month; assay type: functional, organism-based; settings: dose 15-30 mg/kg, time 1.0 months
A549 [6] = test: In vivo induction of apoptosis in human A549 cells xenografted in athymic nude Crl:NU-Foxn1nu mouse assessed as increase in Bcl-2 level at 30 mg/kg, po administered twice a week for 1 month by immunoblot analysis; assay type: functional, organism-based; settings: time 1.0 months
[7] = Metabolic stability in mouse hepatocytes assessed as half life at 2 uM measured upto 120 min by LC-MS/MS analysis; assay type: ADME, cell-based, Hepatocyte
[8] = Antiproliferative activity against human PBMC cells at 10 uM incubated for 48 hrs by MTT assay; assay type: toxicity, cell-based
[9] = Drug metabolism in human hepatocytes assessed as direct glucuronide conjugate M9 metabolite formation at 10 uM by LC-MS/MS analysis; assay type: ADME, cell-based, Hepatocyte
[10] = Metabolic stability in human hepatocytes assessed as half life at 2 uM measured upto 120 min by LC-MS/MS analysis; assay type: ADME, cell-based, Hepatocyte
A549 [11] = test: Induction of apoptosis in human A549 cells at 500 nM by Annexin-V/PI staining based flow cytometry; assay type: functional, cell-based
[12] = Drug metabolism in human hepatocytes assessed as oxidative deamination M1 metabolite formation at 10 uM by LC-MS/MS analysis; assay type: ADME, cell-based, Hepatocyte
Cytochrome P450 2C19 = Cytochrome P450 2C19 (Homo sapiens, UniProt P33261); test: Inhibition of CYP2C19 in human liver microsomes preincubated for 10 mins followed by NADPH addition measured after 5 mins by LC-MS/MS analysis; assay type: ADME, Microsome
Sequence of Cytochrome P450 2C19 (P33261 whole entry): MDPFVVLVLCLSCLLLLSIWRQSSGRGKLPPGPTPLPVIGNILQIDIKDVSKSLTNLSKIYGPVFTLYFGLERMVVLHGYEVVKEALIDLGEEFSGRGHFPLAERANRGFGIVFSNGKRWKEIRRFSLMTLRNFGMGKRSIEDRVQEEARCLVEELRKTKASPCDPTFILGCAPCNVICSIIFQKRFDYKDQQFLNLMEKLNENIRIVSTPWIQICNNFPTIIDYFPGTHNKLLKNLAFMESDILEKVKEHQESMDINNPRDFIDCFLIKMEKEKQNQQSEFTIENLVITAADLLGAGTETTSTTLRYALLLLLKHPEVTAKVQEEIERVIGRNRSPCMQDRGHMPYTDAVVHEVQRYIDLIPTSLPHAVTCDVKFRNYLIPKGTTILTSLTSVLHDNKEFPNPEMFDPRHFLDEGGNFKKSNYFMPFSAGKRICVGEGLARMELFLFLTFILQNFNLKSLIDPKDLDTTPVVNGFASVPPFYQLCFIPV

A549 [13] = test: Induction of cell cycle arrest in human A549 cells assessed as accumulation at G1 phase at 500 nM by PI staining based flow cytometry; assay type: functional
Histone deacetylase 9 = Histone deacetylase 9 (Homo sapiens, UniProt Q9UKV0); test: Inhibition of His-tagged recombinant human HDAC9 by fluorogenic assay
Sequence of Histone deacetylase 9 (Q9UKV0 whole entry, the tested form may be a part): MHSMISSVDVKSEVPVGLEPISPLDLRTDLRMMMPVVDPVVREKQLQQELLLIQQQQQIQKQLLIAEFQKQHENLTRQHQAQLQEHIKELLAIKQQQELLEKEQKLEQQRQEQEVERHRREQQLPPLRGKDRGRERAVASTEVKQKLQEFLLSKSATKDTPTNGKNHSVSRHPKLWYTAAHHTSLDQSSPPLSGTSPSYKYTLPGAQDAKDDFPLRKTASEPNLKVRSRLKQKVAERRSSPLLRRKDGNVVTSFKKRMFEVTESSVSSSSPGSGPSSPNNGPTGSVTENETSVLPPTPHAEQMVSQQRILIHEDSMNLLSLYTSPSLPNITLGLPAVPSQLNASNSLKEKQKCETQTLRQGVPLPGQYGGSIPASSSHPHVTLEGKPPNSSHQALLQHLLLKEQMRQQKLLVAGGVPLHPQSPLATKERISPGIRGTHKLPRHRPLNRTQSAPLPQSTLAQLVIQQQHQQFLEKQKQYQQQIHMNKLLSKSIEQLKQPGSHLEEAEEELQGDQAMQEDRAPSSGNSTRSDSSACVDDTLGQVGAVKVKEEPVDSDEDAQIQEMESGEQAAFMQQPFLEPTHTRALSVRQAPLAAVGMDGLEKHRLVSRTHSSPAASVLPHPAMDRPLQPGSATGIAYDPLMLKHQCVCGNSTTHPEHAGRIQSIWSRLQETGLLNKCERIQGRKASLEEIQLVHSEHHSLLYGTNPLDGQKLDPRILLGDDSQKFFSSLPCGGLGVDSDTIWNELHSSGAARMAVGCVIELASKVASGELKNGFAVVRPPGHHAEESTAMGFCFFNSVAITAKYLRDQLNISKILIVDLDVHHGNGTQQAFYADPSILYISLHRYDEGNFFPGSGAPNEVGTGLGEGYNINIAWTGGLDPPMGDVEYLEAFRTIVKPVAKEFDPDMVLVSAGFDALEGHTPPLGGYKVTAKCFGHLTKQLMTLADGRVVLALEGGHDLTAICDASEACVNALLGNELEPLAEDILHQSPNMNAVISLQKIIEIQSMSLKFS

[14] = target: Polyamine deacetylase HDAC10 (Homo sapiens, UniProt Q969S8); test: Inhibition of N-terminal FLAG-tagged recombinant human HDAC10 (2 to 631 residues) extracted from baculovirus infected Sf9 cells by fluorogenic assay
Sequence of Polyamine deacetylase HDAC10 (Q969S8 whole entry, the tested form may be a part): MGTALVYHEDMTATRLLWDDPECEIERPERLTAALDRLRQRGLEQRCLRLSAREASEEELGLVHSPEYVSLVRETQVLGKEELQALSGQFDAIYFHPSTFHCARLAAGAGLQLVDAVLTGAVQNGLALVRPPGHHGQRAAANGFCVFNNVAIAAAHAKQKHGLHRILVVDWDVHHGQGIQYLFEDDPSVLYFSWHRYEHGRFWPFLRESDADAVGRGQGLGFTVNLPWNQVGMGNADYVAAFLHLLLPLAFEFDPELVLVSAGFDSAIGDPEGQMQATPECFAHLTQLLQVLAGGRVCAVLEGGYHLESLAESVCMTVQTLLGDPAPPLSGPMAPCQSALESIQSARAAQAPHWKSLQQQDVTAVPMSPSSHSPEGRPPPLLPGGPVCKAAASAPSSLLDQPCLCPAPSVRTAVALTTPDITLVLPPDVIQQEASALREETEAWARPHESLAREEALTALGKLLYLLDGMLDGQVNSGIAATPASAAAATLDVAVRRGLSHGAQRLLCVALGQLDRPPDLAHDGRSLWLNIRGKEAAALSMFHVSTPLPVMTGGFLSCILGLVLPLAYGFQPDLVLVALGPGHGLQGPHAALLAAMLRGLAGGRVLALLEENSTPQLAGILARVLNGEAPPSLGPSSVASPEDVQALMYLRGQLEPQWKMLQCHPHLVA

MDA-MB-231 = test: Anti-cancer activity against human MDA-MB-231 cells assessed as decrease in CDK-4 level at 10 uM incubated for 48 hrs by immunoblot analysis; assay type: functional, cell-based

Row | SMILES | Activity (A549 [1]) | Drug metabolism [2] | Activity (A549 [3]) | Activity [4] | Activity (A549 [5]) | Activity (A549 [6]) | half-life at 2 µM [7] | Activity [8] | Drug metabolism [9] | half-life at 2 µM [10] | Activity (A549 [11]) | Drug metabolism [12] | IC50 (Cytochrome P450 2C19) | Activity (A549 [13]) | IC50 (Histone deacetylase 9) | IC50 [14] | Activity (MDA-MB-231)
1 | COc1ccc(-c2ccc3cc(OCCCCCC(=O)NO)ccc3n2)cc1 | Active | metabolite_detected | Active | Non-toxic | Active | Active | 74.3 min | Non-toxic | metabolite_detected | 45.7 min | Active | metabolite_detected | 18000 nM | Active | > 100 nM | 87.1 nM | –
2 | COc1ccc(-c2ccc3ccc(OCCCCCCC(=O)NO)cc3n2)cc1I | – | – | – | – | – | – | – | – | – | – | – | – | – | – | – | – | Active
